Experiments:
tom = test: Male contraception by daily treat given to tom; type: in vivo, tom (cat)
Method: A 6 kg. tom who has previously sired offspring is given a treat daily containing 20 mg. of 17β-methoxy-2α-methyl-5α-androstan-3-one. […] Eighty days following cessation of administration of the treat, the tom, upon sexual intercourse, fertilizes the same ovulating female at the time of her estrus.

[1] = tested on: healthy male mammal post-puberty (man); test: Male contraception by oral administration to man; type: in vivo
Method: A 60 kg. Person who is the admitted parent of 2 children is given one 50 mg. tablet daily of 17β-methoxy-2α-methyl-5α-androstan-3-one.
A 60 kg. Person is treated daily with one teaspoonful of a suspension of 2α,3α-epithio-17β-ethoxy-5α-androstane (100 mg./ml.).

normal men = settings: six normal men; Morse et al., J. Clin. Endocrinol. Metab. 37, 882 (1973); cited from earlier work
men = settings: cited from earlier work
[2] = tested on: rat ABP (androgen binding protein) and rat AR (androgen receptor); test: ABP/AR ratio: relative affinity (vs DHT) for rat ABP and rat AR; settings: ratio of relative affinity for rat ABP to relative affinity for rat AR, each compared to DHT
Excerpt: The present invention includes steroids which have a high affinity for rat ABP (androgen binding protein) as compared to DHT (dihydrotestosterone, 17β-hydroxy-5α-androst-3-one). N. A. Musto et al. in Endo. Res. Comm. 4, 147 (1977) have described a procedure for isolation and purification of rat ABP. Utilizing the purified rat ABP, and following the procedure of E. M. Ritzen et al. described in J. Biol. Chem. 249, 6597 (1974), the relative affinity of various non-estrogenic-type steroids can readily be determined. The dissociation constant (Kd) measures the affinity of a compound for a protein. The dissociation constant for DHT and the non-estrogenic-type steroids is determined. […]
E. M. Wilson and F. S. French in the J. Biol. Chem. 251, 5620 (1976) have described a procedure for isolation and partial purification of rat AR. Utilizing the rat AR and following the procedure of G. Verhoeven et al. described in Steroids 26, 149 (1975) the relative affinity of various steroids can readily be determined. The dissociation constant for DHT and non-estrogenic steroids is determined. […] D. J. Tindall, et al., in the International Journal of Andrology, Supplement 2 (1978) set forth the preferred method for determining the relative affinities of a steroid for ABP and AR from which the ABP/AR ratio can be calculated. […]

Structure (SMILES): CO[C@H]1CC[C@H]2[C@@H]3CC[C@H]4CC(=O)[C@H](C)C[C@]4(C)[C@H]3CC[C@]12C [17β-methoxy-2α-methyl-5α-androstan-3-one]
- fertilization of an ovulating female at estrus following sexual intercourse (tom; Example 6: 6 kg tom, treat with 20 mg daily, after 60 days): does not fertilize
- fertility on continuous daily administration (tom; Example 6: continued daily treat): remains infertile
- fertilization of the same ovulating female after cessation (reversibility) (tom; Example 6: eighty days following cessation of the treat): fertilizes
- fertilization of a fertile female following sexual intercourse ([1]; Example 1: 70 10 mg tablet twice daily for about 100 days): does not fertilize
- fertility on continued administration ([1]; Example 1: continued twice daily): remains infertile
- fertilization of a fertile female following sexual intercourse ([1]; Example 2: 80 200 mg capsule four times daily for 60 days): does not fertilize
- fertility on continued administration ([1]; Example 2: continued 4 times daily): remains infertile
- fertility on continued administration ([1]; Example 4: continued daily): remains infertile

Structure (SMILES): CCC(=O)O[C@H]1CC[C@H]2[C@@H]3CCC4=CC(=O)CC[C@]4(C)[C@H]3CC[C@]12C [testosterone propionate]
- sperm concentration (normal men): sharp drop
- testicular testosterone (normal men): decrease

Structure (SMILES): CCCCCCC(=O)O[C@H]1CC[C@H]2[C@@H]3CCC4=CC(=O)CC[C@]4(C)[C@H]3CC[C@]12C [testosterone enanthate]
- effect on sperm in men who acknowledged paternity (men; Steinberger et al., Fertility and Sterility 27, 216 (1976)): azoospermia
- sperm count (men; seven men, Mauss et al., Acta. Endocrinol. 78, 373 (1975)): less than 3,000,000 sperm/ml

Structure (SMILES): CCO[C@H]1CC[C@H]2[C@@H]3CC[C@H]4C[C@@H]5S[C@@H]5C[C@]4(C)[C@H]3CC[C@]12C [2α,3α-epithio-17β-ethoxy-5α-androstane]
- fertilization of a fertile female following sexual intercourse ([1]; Example 5: 60 one teaspoonful daily of suspension (100 mg./ml.), after 60 days): does not fertilize
- fertility on further administration ([1]; Example 5: further administration): remains infertile

Structure (SMILES): C[C@@H]1C[C@@]2(C)C(=CC1=O)C[C@@H](C)[C@H]1[C@@H]3CC[C@H](O)[C@@]3(C)CC[C@@H]12 [2α,7α-dimethyltestosterone]
- ABP/AR ratio [2]: about 6.0

Structure (SMILES): CO[C@H]1CC[C@H]2[C@@H]3CC[C@H]4C[C@@H]5S[C@@H]5C[C@]4(C)[C@H]3CC[C@]12C [2α,3α-epithio-17β-methoxy-5α-androstane]
- fertilization of a fertile female following sexual intercourse ([1]; Example 3: 70 one-half teaspoonful/day of elixir (100 mg./ml.), after 60 days): does not fertilize
- fertility on continued administration ([1]; Example 3: continued daily elixir): remains infertile
